Source: the SangsterLogP compilation

Conditions: not given

| Structure (SMILES) | logP |
| --- | --- |
| COP(=O)(OC)SCn1nnc2ccccc2c1=O | 0.78 |
| COP(=S)(OC)Oc1cc(Cl)c(Br)cc1Cl | 4.88 |
| COP(=S)(OC)SCN1C(=O)c2ccccc2C1=O | 2.78 |
| CCOP(=S)(OCC)Oc1cc(C)nc(N(CC)CC)n1 | 4.85 |
| CCOP(=O)(OCC)Oc1ccc([N+](=O)[O-])cc1 | 1.98 |
| CCOP(=S)(OCC)Oc1ccc(N)cc1 | 2.6 |
| CCOP(=O)(OCC)SCS(=O)(=O)CC | 1.98 |
| Cc1cc(Cl)ccc1/N=C/N(C)C | 2.89 |
| CCOP(=O)(OCC)Oc1cc(C)nc(C(C)C)n1 | 2.07 |
| CCOP(=S)(OCC)Oc1ccc(S(C)(=O)=O)cc1 | 2.56 |
| CCOP(=S)(OCC)Oc1cc(C)nc(C(C)C)n1 | 3.81 |
| CCOP(=S)(OCC)SCCS(=O)(=O)CC | 1.87 |
| COP(=S)(Oc1cc(Cl)c(Br)cc1Cl)c1ccccc1 (centres undefined) | 5.88 |
| CCOP(=S)(OCC)Oc1ccc(S(C)=O)cc1 (centres undefined) | 2.23 |
| COP(=O)(Oc1cc(Cl)c(Br)cc1Cl)c1ccccc1 (centres undefined) | 4.58 |
| COP(=S)(OC)SCSc1ccc(Cl)cc1 | 4.82 |
| CCOP(=S)(OCC)Oc1cc(Cl)c(Br)cc1Cl | 5.68 |
| CCOP(=S)(OCC)Oc1ccc(SC)cc1 | 4.16 |

Same assay, conditions: pH 9.0

| Structure (SMILES) | logD |
| --- | --- |
| CNC(=O)Oc1ccc(N(C)C)c(C)c1 | 1.9 |
